From patent US5395850A, “6,7-epoxy paclitaxels” (Bristol-Myers Squibb Company, priority 1994, dated 1995)
Read-outs that look alike come from different tables or passages of the source.

Assays:
[1] = tested on: human colon carcinoma cells HCT-116/VM46; experiment: XTT in vitro cytotoxicity assay, HCT-116/VM46 multi-drug resistant human colon carcinoma cells; assay type: cell-based
Procedure: (§1) The HCT-116/VM46 cells are cells that have been previously selected for teniposide resistance and express the multi-drug resistance phenotype, including resistance to paclitaxel. Cytotoxicity was assessed in HCT-116 human colon carcinoma cells by XTT (2,3-bis(2-methoxy-4-nitro-5-sulfphenyl)-5-[(phenylamino)carbonyl]2H-tetrazolium hydroxide) assay as reported in D. A. Scudiero, et al., "Evaluation of soluble tetrazolium/formazan assay for cell growth and drug sensitivity in culture using human and other tumor cell lines," Cancer Res. 48:4827-4833, 1988. Cells were plated at 4000 cells/well in 96 well microtiter plates and 24 hours later drugs were added and serial diluted. The cells were incubated at 37° C. for 72 hours at which time the tetrazolium dye, XTT, was added. A dehydrogenase enzyme in live cells reduces the XTT to a form that absorbs light at 450 nm which can be quantitated spectrophotometrically. The greater the absorbance, the greater the number of live cells. The results are expressed as an IC50, which is the drug concentration required to inhibit cell proliferation (i.e., absorbance at 450 nm) to 50% of that of untreated control cells.

[2] = tested on: human colon carcinoma cells HCT-116; experiment: XTT in vitro cytotoxicity assay, HCT-116 human colon carcinoma cells; assay type: cell-based
Procedure: as §1

[3] = HCT-116/VM46, 72 h, read-out: IC50 HCT116/VM46 (nM)
[4] = HCT-116, 72 h, read-out: IC50 HCT116 (nM)
[5] = HCT-116/VM46, XTT, 72 hours at 37° C., teniposide-selected cells, multi-drug resistance phenotype incl. resistance to paclitaxel, read-out: IC50 HCT116/VM46
[6] = HCT-116, XTT, 72 hours at 37° C., inhibition of cell proliferation to 50% of untreated control, read-out: IC50 HCT116

Row | Compound | IC50 [1, 3] [nM] | IC50 [2, 4] [nM] | IC50 [1, 5] [nM] | IC50 [2, 6] [nM]
1 | CC(=O)O[C@H]1C(=O)[C@]2(C)[C@@H]3O[C@@H]3[C@H]3OC[C@@]3(OC(C)=O)[C@H]2[C@H](OC(=O)c2ccccc2)[C@]2(O)C[C@H](OC(=O)[C@H](O)[C@@H](NC(=O)c3ccccc3)c3ccccc3)C(C)=C1C2(C)C [Ia, 6,7-α-Epoxypaclitaxel] | 30.5 | 1.2 |  | 
2 | CC(=O)O[C@H]1C(=O)[C@]2(C)[C@@H]3O[C@@H]3[C@H]3OC[C@@]3(OC(C)=O)[C@H]2[C@H](OC(=O)c2ccccc2)[C@]2(O)C[C@H](OC(=O)[C@H](O)[C@@H](NC(=O)OC(C)(C)C)c3ccco3)C(C)=C1C2(C)C [Ib, 3'-N-Debenzoyl-N-t-butoxycarbonyl-3'-desphenyl-3'-(2-furyl)-6,7-α-epoxypaclitaxel] |  |  | 2.8 to 13.9 | 1.3 to 3
3 | CC(=O)O[C@H]1C(=O)[C@]2(C)[C@@H]3O[C@@H]3[C@H]3OC[C@@]3(OC(C)=O)[C@H]2[C@H](OC(=O)c2ccccc2)[C@]2(O)C[C@H](OC(=O)[C@H](O)[C@@H](NC(=O)c3ccccc3)c3ccco3)C(C)=C1C2(C)C [Ic, 3'-Desphenyl-3'-(2-furyl)-6,7-α-epoxypaclitaxel] | 12.3 | 0.6 |  | 
4 | CC(=O)O[C@H]1C(=O)[C@]2(C)[C@@H]3O[C@@H]3[C@H]3OC[C@@]3(OC(C)=O)[C@H]2[C@H](OC(=O)c2ccccc2)[C@]2(O)C[C@H](OC(=O)[C@H](O)[C@H](C=C(C)C)NC(=O)OC(C)(C)C)C(C)=C1C2(C)C [Id, 3'-N-Debenzoyl-N-t-butoxycarbonyl-3'-desphenyl-3'-isobutenyl-6,7-α-epoxypaclitaxel] | 3.3 | 1.3 |  | 
5 | CC(=O)O[C@H]1C(=O)[C@@]2(C)[C@H]([C@H](OC(=O)c3ccccc3)[C@]3(O)C[C@H](OC(=O)[C@H](O)[C@@H](NC(=O)c4ccccc4)c4ccccc4)C(C)=C1C3(C)C)[C@]1(OC(C)=O)CO[C@@H]1C[C@@H]2O [paclitaxel] |  |  | 244 to 403 | 1.3 to 3.5
